pIC50: −log10 of the molar value. Structures can show the parent of a compound that is named as a salt.
Target: EGFR WT (Homo sapiens (Human), UniProt P00533)
Test: ErbB enzyme assay (CisBio HTRF-KinEASE-TK), EGFR WT
Type: biochemical
Settings: ATP at Km (25 μM), 1 h incubation
Procedure: In vitro enzyme assays based on CisBio HTRF-KinEASE-TK technology were used to determine compound potencies. […]. Compounds were prepared as a three-fold serial dilution in DMSO and added to the assay to give the appropriate final concentration. After a 1 h incubation at ambient temperature, the reaction was quenched by adding 10 μL of 62.5 nM Sa-XL665 and 0.25×TK-Ab-Cryptate in HTRF detection buffer (all from CisBio, part of cat #62TKOPEC). After another 1 h incubation at ambient temperature, the extent of substrate phosphorylation was determined using a PerkinElmer EnVision multimode plate reader via time-resolved fluorescence dual wavelength detection. The percent of control (POC) was calculated using the ratio of emission at […] to the emission at 620 nm. One hundred POC was determined using DMSO only controls (no test compounds present) and zero POC was determined using pre-quenched controls reactions. A 4-parameter logistic equation was fit to the POC values as a function of the test compound concentration and the IC50 value was determined as the point where the curve crossed 50 POC.

Sequence of EGFR WT (P00533 25-1210): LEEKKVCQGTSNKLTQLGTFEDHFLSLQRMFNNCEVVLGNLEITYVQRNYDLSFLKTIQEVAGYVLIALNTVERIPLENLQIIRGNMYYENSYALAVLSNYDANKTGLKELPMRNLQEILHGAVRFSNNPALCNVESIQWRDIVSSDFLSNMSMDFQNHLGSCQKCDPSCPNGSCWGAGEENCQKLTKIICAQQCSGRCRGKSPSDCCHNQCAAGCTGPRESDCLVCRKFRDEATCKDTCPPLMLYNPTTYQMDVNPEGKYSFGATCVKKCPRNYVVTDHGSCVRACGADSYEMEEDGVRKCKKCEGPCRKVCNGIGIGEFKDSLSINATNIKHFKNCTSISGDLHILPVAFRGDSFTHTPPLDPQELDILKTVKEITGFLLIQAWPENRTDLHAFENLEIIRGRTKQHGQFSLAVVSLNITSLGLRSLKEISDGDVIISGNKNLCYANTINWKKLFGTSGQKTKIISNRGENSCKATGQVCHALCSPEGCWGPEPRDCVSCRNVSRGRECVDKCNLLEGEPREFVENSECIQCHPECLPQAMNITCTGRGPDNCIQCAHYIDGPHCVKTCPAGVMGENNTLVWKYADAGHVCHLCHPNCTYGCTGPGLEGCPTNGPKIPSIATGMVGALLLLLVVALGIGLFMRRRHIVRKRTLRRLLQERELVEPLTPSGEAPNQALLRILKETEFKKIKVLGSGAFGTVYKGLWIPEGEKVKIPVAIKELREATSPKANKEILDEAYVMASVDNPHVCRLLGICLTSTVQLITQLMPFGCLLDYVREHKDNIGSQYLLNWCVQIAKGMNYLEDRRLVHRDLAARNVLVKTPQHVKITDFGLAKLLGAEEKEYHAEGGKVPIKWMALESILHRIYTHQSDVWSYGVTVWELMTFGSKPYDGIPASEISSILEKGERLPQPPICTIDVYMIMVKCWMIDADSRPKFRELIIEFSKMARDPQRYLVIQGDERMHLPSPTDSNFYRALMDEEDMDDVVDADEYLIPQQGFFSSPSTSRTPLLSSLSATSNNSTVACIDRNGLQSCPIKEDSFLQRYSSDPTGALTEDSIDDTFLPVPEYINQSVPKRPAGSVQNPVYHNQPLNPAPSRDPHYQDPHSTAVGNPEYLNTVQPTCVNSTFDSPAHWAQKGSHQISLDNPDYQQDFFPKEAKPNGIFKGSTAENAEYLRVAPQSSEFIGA

pIC50 | SMILES
≤ 6.00 | C=CC(=O)N1CCN(c2ncc3ncnc(Nc4ccc(Oc5ccc6c(c5)nnn6C)c(C)c4)c3n2)C[C@H]1C(C)C [Compound 121, (R)-1-(2-isopropyl-4-(8-((3-methyl-4-((1-methyl-1H-benzo[d][1,2,3]triazol-5-yl)oxy)phenyl)amino)pyrimido[5,4-d]pyrimidin-2-yl)piperazin-1-yl)prop-2-en-1-one]
7.00 to 7.30 | C=CC(=O)N1CCN(c2ccc3ncnc(Nc4ccc(Oc5ccc6c(c5)ncn6C(F)F)c(C)c4)c3n2)C[C@H]1C [Compound 340, (R)-1-(4-(4-((4-((1-(difluoromethyl)-1H-benzo[d]imidazol-5-yl)oxy)-3-methylphenyl)amino)pyrido[3,2-d]pyrimidin-6-yl)-2-methylpiperazin-1-yl)prop-2-en-1-one]
≤ 6.00 | C=C1CCN(C2CCN(c3ccc4ncnc(Nc5ccc(Oc6ccc7c(c6)nnn7C)c(C)c5F)c4n3)CC2)C1=O [Compound 241, 1-(1-(4-((2-fluoro-3-methyl-4-((1-methyl-1H-benzo[d][1,2,3]triazol-5-yl)oxy)phenyl)amino)pyrido[3,2-d]pyrimidin-6-yl)piperidin-4-yl)-3-methylenepyrrolidin-2-one]
> 7.30 | C=CC(=O)N1CCN(c2ncc3ncnc(Nc4ccc(Oc5cc(F)c6c(c5)ncn6C)c(C)c4F)c3n2)C[C@H]1CC [Compound 160, (R)-1-(2-ethyl-4-(8-((2-fluoro-4-((7-fluoro-1-methyl-1H-benzo[d]imidazol-5-yl)oxy)-3-methylphenyl)amino)pyrimido[5,4-d]pyrimidin-2-yl)piperazin-1-yl)prop-2-en-1-one]
≤ 6.00 | C=CC(=O)N1CC2(C1)CN(c1ncc3ncnc(Nc4ccc(Oc5ccc6c(c5)nnn6C)c(C)c4F)c3n1)C2 [Compound 23, 1-(6-(8-((2-fluoro-3-methyl-4-((1-methyl-1H-benzo[d][1,2,3]triazol-5-yl)oxy)phenyl)amino)pyrimido [5,4-d]pyrimidin-2-yl)-2,6-diazaspiro[3.3]heptan-2-yl)prop-2-en-1-one]
> 7.30 | C=CC(=O)N1CCN(c2ncc3ncnc(Nc4cc(F)c(Oc5ccc6c(c5)nnn6C)c(Cl)c4)c3n2)C[C@H]1C [Compound 194, (R)-1-(4-(8-((3-chloro-5-fluoro-4-((1-methyl-1H-benzo[d][1,2,3]triazol-5-yl)oxy)phenyl)amino)pyrimido[5,4-d]pyrimidin-2-y1)-2-methylpiperazin-1-yl)prop-2-en-1-one]
6.30 to 7.00 | C=CC(=O)N[C@H]1CCN(c2ccc3ncnc(Nc4ccc(Oc5ccc6c(c5)nnn6C)c(C)c4F)c3n2)CC1(C)C [Compound 343, (S)-N-(1-(4-((2-fluoro-3-methyl-4-((1-methyl-1H-benzo[d][1,2,3]triazol-5-yl)oxy)phenyl)amino)pyrido[3,2-d]pyrimidin-6-yl)-3,3-dimethylpiperidin-4-yl)acrylamide]
> 7.30 | C=CC(=O)N1CCC(Oc2nc3c(Nc4ccc(Oc5ccc6c(c5)ncn6C)c(C)c4F)ncnc3cc2OC)CC1 [Compound 394, 1-(4-((4-((2-fluoro-3-methyl-4-((1-methyl-1H-benzo[1d]imidazol-5-yl)oxy)phenyl)amino)-7-methoxypyrido[3,2-d]pyrimidin-6-yl)oxy)piperidin-1-yl)prop-2-en-1-one]
≤ 6.00 | C=CC(=O)N1CCCN(c2ncc3ncnc(Nc4ccc(Oc5ccc6c(c5)nnn6C)c(C)c4)c3n2)C[C@H]1C [Compound 227, (R)-1-(2-methyl-4-(8-((3-methyl-4-((1-methyl-1H-benzo[d][1,2,3]triazol-5-yl)oxy)phenyl)amino)pyrimido[5,4-d]pyrimidin-2-yl)-1,4-diazepan-1-yl)prop-2-en-1-one]
> 7.30 | C=CC(=O)N1CCN(c2ccc3ncnc(Nc4ccc(Oc5cc(F)c6c(c5)nnn6C)c(C)c4)c3n2)CC1 [Compound 97, 1-(4-(4-((4-((7-fluoro-1-methyl-1H-benzo[d][1,2,3]triazol-5-yl)oxy)-3-methylphenyl)amino)pyrido[3,2-d]pyrimidin-6-yl)piperazin-1-yl)prop-2-en-1-one]
6.30 to 7.00 | C=CC(=O)N1CCN(c2ccc3ncnc(Nc4ccc(Oc5ccc6c(c5)nnn6C)c(C)c4)c3n2)C[C@@H]1C [Compound 72, (S)-1-(2-methyl-4-(4-((3-methyl-4-((1-methyl-1H-benzo[d][1,2,3]triazol-5-yl)oxy)phenyl)amino)pyrido[3,2-d]pyrimidin-6-yl)piperazin-1-yl)prop-2-en-1-one]
7.00 to 7.30 | C=CC(=O)N1CCN(c2ncc3ncnc(Nc4ccc(Oc5ccc6c(c5)nnn6C)c(F)c4F)c3n2)CC1 [Compound 44, 1-(4-(8-((2,3-difluoro-4-((1-methyl-1H-benzo[d][1,2,3]triazol-5-yl)oxy)phenyl)amino)pyrimido[5,4-d]pyrimidin-2-yl)piperazin-1-yl)prop-2-en-1-one]
≤ 6.00 | C=CC(=O)N1C2C=C(c3ccc4ncnc(Nc5cc(C)c(Oc6ccc7c(c6)nnn7C)cc5OC)c4n3)CC1CCC2 (stereo not drawn) [Compound 413, 1-(3-(4-((2-methoxy-5-methyl-4-((1-methyl-1H-benzo[d][1,2,3]triazol-5-yl)oxy)phenyl)amino)pyrido[3,2-d]pyrimidin-6-yl)-9-azabicyclo[3.3.1]non-2-en-9-yl)prop-2-en-1-one trifluoroacetate]
7.00 to 7.30 | C=CC(=O)N1CCN(c2ccc3ncnc(Nc4ccc(Oc5cc6ncnn6cn5)c(C)c4)c3n2)C[C@H]1C [Compound 329, (R)-1-(4-(4-((4-([1,2,4]triazolo[1,5-c]pyrimidin-7-yloxy)-3-methylphenyl)amino)pyrido[3,2-d]pyrimidin-6-yl)-2-methylpiperazin-1-yl)prop-2-en-1-one]
6.30 to 7.00 | C=CC(=O)N1CCN(c2ccc3ncnc(Nc4ccc(Oc5ccc6c(c5)nnn6C)c(C)c4)c3n2)C[C@@H]1COC [Compound 78, (R)-1-(2-(methoxymethyl)-4-(4-((3-methyl-4-((1-methyl-1H-benzo[d][1,2,3]triazol-5-yl)oxy)phenyl)amino)pyrido[3,2-d]pyrimidin-6-yl)piperazin-1-yl)prop-2-en-1-one]
≤ 6.00 | C=CC(=O)N[C@@H]1C[C@H](C)CN(c2ccc3ncnc(Nc4ccc(Oc5ccc6c(c5)nnn6C)c(C)c4F)c3n2)C1 (single isomer, unassigned) [Compound 336]
≤ 6.00 | C=C(F)C(=O)N1C2C=C(c3ccc4ncnc(Nc5ccc(Oc6ccc7c(c6)nnn7C)c(C)c5)c4n3)CC1COC2 (stereo not drawn) [Compound 410, 2-fluoro-1-(7-(4-((3-methyl-4-((1-methyl-1H-benzo[d][1,2,3]triazol-5-yl)oxy)phenyl)amino)pyrido[3,2-d]pyrimidin-6-yl)-3-oxa-9-azabicyclo[3.3.1]non-6-en-9-yl)prop-2-en-1-one trifluoroacetate]
6.30 to 7.00 | C=CC(=O)N1CCN(c2ccc3ncnc(Nc4ccc(Oc5cc6nnn(C)c6c(C)c5F)c(C)c4)c3n2)C[C@H]1C [Compound 288, (R)-1-(4-(4-((4-((6-fluoro-1,7-dimethyl-1H-benzo[d][1,2,3]triazol-5-yl)oxy)-3-methylphenyl)amino)pyrido[3,2-d]pyrimidin-6-yl)-2-methylpiperazin-1-yl)prop-2-en-1-one]
> 7.30 | Cc1cc(Nc2ncnc3cnc(N4CCN(C(=O)/C=C/C(F)(F)F)CC4)nc23)ccc1Oc1ccc2c(c1)nnn2C [Compound 217, 4,4,4-trifluoro-1-(4-(8-((3-methyl-4-((1-methyl-1H-benzo[d][1,2,3]triazol-5-yl)oxy)phenyl)amino)pyrimido [5,4-d]pyrimidin-2-yl)piperazin-1-yl) but-2-en-1-one]
7.00 to 7.30 | C=CC(=O)N1CCN(c2ccc3ncnc(Nc4cc(F)c(Oc5ccc6c(c5)nnn6C)c(Cl)c4)c3n2)C[C@H]1C [Compound 252, (R)-1-(4-(4-((3-chloro-5-fluoro-4-((1-methyl-1H-benzo[d][1,2,3]triazol-5-yl)oxy)phenyl)amino)pyrido[3,2-d]pyrimidin-6-yl)-2-methylpiperazin-1-yl)prop-2-en-1-one]
≤ 6.00 | C=C(F)C(=O)N1C2C=C(c3ccc4ncnc(Nc5ccc(Oc6ccc7c(c6)nnn7C)c(C)c5)c4n3)CC1CCC2 (stereo not drawn) [Compound 406, 2-fluoro-1-(3-(4-((3-methyl-4-((1-methyl-1H-benzo[d][1,2,3]triazol-5-yl)oxy)phenyl)amino)pyrido[3,2-d]pyrimidin-6-yl)-9-azabicyclo[3.3.1]non-2-en-9-yl)prop-2-en-1-one trifluoroacetate]
6.30 to 7.00 | C=CC(=O)N[C@@H]1CN(c2ccc3ncnc(Nc4ccc(Oc5ccc6c(c5)nnn6C)c(C)c4F)c3n2)CC[C@H]1C (single isomer, unassigned) [Compound 347]
6.30 to 7.00 | Cc1cc(Nc2ncnc3ccc(N4CCN(C(=O)/C=C/CF)[C@H](C)C4)nc23)ccc1Oc1ccc2c(c1)nnn2C [Compound 364, (R,E)-4-fluoro-1-(2-methyl-4-(4-((3-methyl-4-((1-methyl-1H-benzo[d][1,2,3]triazol-5-yl)oxy)phenyl)amino)pyrido[3,2-d]pyrimidin-6-yl)piperazin-1-yl)but-2-en-1-one]
6.30 to 7.00 | C=CC(=O)N[C@@]1(C)CCN(c2ncc3ncnc(Nc4ccc(Oc5ccc6c(c5)nnn6C)c(C)c4)c3n2)C1 [Compound 145, (S)-N-(3-methyl-1-(8-((3-methyl-4-((1-methyl-1H-benzo[d][1,2,3]triazol-5-yl)oxy)phenyl)amino)pyrimido[5,4-d]pyrimidin-2-yl)pyrrolidin-3-yl)acrylamide]

From US20250129078A1, “ERBB2 INHIBITORS” (Cogent Biosciences, Inc., priority 2023, published 2025)
